Laboratory results taken from patent US10300051B2, “Cyclopropylamines as LSD1 inhibitors” (priority 2014, dated 2019).
Read-outs that look alike come from different tables or passages of the source.

Target: LSD-1 enzyme (Homo sapiens (Human), UniProt O60341)
Assay type: biochemical
Description: Example A: LSD1 Histone Demethylase Biochemical Assay
LANCE LSD1/KDM1A demethylase assay—10 μL of 1 nM LSD-1 enzyme (ENZO BML-SE544-0050) in the assay buffer (50 mM Tris, pH 7.5, 0.01% Tween-20, 25 mM NaCl, 5 mM DTT) were preincubated for 1 hour at 25° C. with 0.8 μL compound/DMSO dotted in black 384 well polystyrene plates. […] Reactions were stopped by addition of 10 μL 1× LANCE Detection Buffer (PerkinElmer CR97-100) supplemented with 1.5 nM Eu-anti-unmodified H3K4 Antibody (PerkinElmer TRF0404), and 225 nM LANCE Ultra Streptavidin (PerkinElmer TRF102) along with 0.9 mM Tranylcypromine-HCl (Millipore 616431). After stopping the reactions plates were incubated for 30 minutes and read on a PHERAstar FS plate reader (BMG Labtech).

[1] = 1 nM LSD-1 enzyme, 1 hour preincubation at 25° C., Biotin-labeled Histone H3 peptide substrate

CN(C)C(=O)N1CCC(CC#N)(CN[C@@H]2C[C@H]2c2ccccc2)CC1 (relative stereo) [Example 3, 4-(Cyanomethyl)-N,N-dimethyl-4-{[(trans-2-phenylcyclopropyl)amino]methyl}piperidine-1-carboxamide]
IC50 [1]: < 100 nM

O=C(O)CCN1CCC(CN[C@@H]2C[C@H]2c2ccccc2)(Cc2ccc(F)cc2F)CC1 [Example 18, 3-[4-(2,4-difluorobenzyl)-4-({[(1R,2S)-2-phenylcyclopropyl]amino}methyl)piperidin-1-yl]propanoic Acid]
IC50 [1]: < 100 nM

CC(=O)N1CCC(CC#N)(CN[C@@H]2C[C@H]2c2ccccc2)CC1 (relative stereo) [Example 1, (1-Acetyl-4-{[(trans-2-phenylcyclopropyl)amino]methyl}piperidin-4-yl)acetonitrile]
IC50 [1]: < 100 nM

N#Cc1ccc(CC2(CN[C@@H]3C[C@H]3c3ccccc3)CCN(CCC(=O)O)CC2)cc1 [Example 41, 3-[4-(4-cyanobenzyl)-4-({[(1R,2S)-2-phenylcyclopropyl]amino}methyl)piperidin-1-yl]propanoic Acid]
IC50 [1]: < 100 nM

CNC(=O)CCN1CCC(CN[C@@H]2C[C@H]2c2ccccc2)(COC)CC1 [Example 24, 3-[4-(methoxymethyl)-4-({[(1R,2S)-2-phenylcyclopropyl]amino}methyl)piperidin-1-yl]-N-methylpropanamide]
IC50 [1]: < 100 nM

CN1CCC(CC#N)(CN[C@@H]2C[C@H]2c2ccccc2)CC1 (relative stereo) [Example 5, (1-Methyl-4-{[(trans-2-phenylcyclopropyl)amino]methyl}piperidin-4-yl)acetonitrile]
IC50 [1]: < 100 nM

COCC1(CN[C@@H]2C[C@H]2c2ccccc2)CCN(C(=O)CN2CCOCC2)CC1 [Example 61, (1R,2S)—N-{[4-(methoxymethyl)-1-(morpholin-4-ylacetyl)piperidin-4-yl]methyl}-2-phenylcyclopropanamine]
IC50 [1]: < 100 nM

O=C(O)CCN1CCC(CN[C@@H]2C[C@H]2c2ccccc2)(Cc2ccc(F)cn2)CC1 [Example 54, 3-[4-[(5-fluoropyridin-2-yl)methyl]-4-({[(1R,2S)-2-phenylcyclopropyl]amino}methyl)piperidin-1-yl]propanoic Acid]
IC50 [1]: < 100 nM

C[C@H](N)C(=O)N1CCC(CN[C@@H]2C[C@H]2c2ccccc2)(Cc2ccc(F)cc2)CC1 [Example 14, (1R,2S)—N-{[1-[(2S)-2-aminopropanoyl]-4-(4-fluorobenzyl)piperidin-4-yl]methyl}-2-phenylcyclopropanamine]
IC50 [1]: < 100 nM

O=C(O)CCN1CCC(CN[C@@H]2C[C@H]2c2ccccc2)(Cc2ccc(F)cc2)CC1 [Example 8, 3-[4-(4-fluorobenzyl)-4-({[(1R,2S)-2-phenylcyclopropyl]amino}methyl)piperidin-1-yl]propanoic Acid]
IC50 [1]: < 100 nM

N#CCc1ccc(CC2(CN[C@@H]3C[C@H]3c3ccccc3)CCN(CCC(=O)O)CC2)cc1 [Example 25, 3-[4-[4-(cyanomethyl)benzyl]-4-({[(1R,2S)-2-phenylcyclopropyl]amino}methyl)piperidin-1-yl]propanoic Acid]
IC50 [1]: < 100 nM

O=C(O)CCN1CCC(CN[C@@H]2C[C@H]2c2ccccc2)(COc2ccc(F)cc2)CC1 [Example 39, 3-[4-[(4-fluorophenoxy)methyl]-4-({[(1R,2S)-2-phenylcyclopropyl]amino}methyl)piperidin-1-yl]propanoic Acid]
IC50 [1]: < 100 nM

N#CCCN1CCC(CN[C@@H]2C[C@H]2c2ccccc2)(Cc2cccc(C(=O)O)c2)CC1 [Example 56, 3-{[1-(2-cyanoethyl)-4-({[(1R,2S)-2-phenylcyclopropyl]amino}methyl)piperidin-4-yl]methyl}benzoic Acid]
IC50 [1]: < 100 nM

COCC1(CN[C@@H]2C[C@H]2c2ccccc2)CCN(CC(C)(C)C(=O)O)CC1 [Example 48, 3-[4-(methoxymethyl)-4-({[(1R,2S)-2-phenylcyclopropyl]amino}methyl)piperidin-1-yl]-2,2-dimethylpropanoic Acid]
IC50 [1]: < 100 nM

C[C@@H](N)C(=O)N1CCC(CN[C@@H]2C[C@H]2c2ccccc2)(Cc2ccc(F)cc2)CC1 [Example 15, (1R,2S)—N-{[1-[(2R)-2-aminopropanoyl]-4-(4-fluorobenzyl)piperidin-4-yl]methyl}-2-phenylcyclopropanamine]
IC50 [1]: < 100 nM

O=C(O)CCN1CCC(CN[C@@H]2C[C@H]2c2ccccc2)(Cc2cccc(OC3CCOCC3)c2)CC1 [Example 36, 3-{4-({[(1R,2S)-2-phenylcyclopropyl]amino}methyl)-4-[3-(tetrahydro-2H-pyran-4-yloxy)benzyl]piperidin-1-yl}propanoic Acid]
IC50 [1]: < 100 nM

CCOCC1(CN[C@@H]2C[C@H]2c2ccccc2)CCN(CCC(=O)O)CC1 [Example 51, 3-[4-(ethoxymethyl)-4-({[(1R,2S)-2-phenylcyclopropyl]amino}methyl)piperidin-1-yl]propanoic Acid]
IC50 [1]: < 100 nM

N#Cc1ccccc1OCC1(CN[C@@H]2C[C@H]2c2ccccc2)CCN(CCC(=O)O)CC1 [Example 43, 3-[4-[(2-cyanophenoxy)methyl]-4-({[(1R,2S)-2-phenylcyclopropyl]amino}methyl)piperidin-1-yl]propanoic Acid]
IC50 [1]: < 100 nM

CN(C)CC(=O)N1CCC(CN[C@@H]2C[C@H]2c2ccccc2)(Cc2cccc(C#N)c2)CC1 [Example 57, 3-{[1-[(dimethylamino)acetyl]-4-({[(1R,2S)-2-phenylcyclopropyl]amino}methyl)piperidin-4-yl]methyl}benzonitrile]
IC50: < 100 nM

COCC1(CN[C@@H]2C[C@H]2c2ccccc2)CCN(CCC(=O)N(C)C)CC1 [Example 23, 3-[4-(methoxymethyl)-4-({[(1R,2S)-2-phenylcyclopropyl]amino}methyl)piperidin-1-yl]-N,N-dimethylpropanamide]
IC50 [1]: < 100 nM

O=C(O)CCN1CCC(CN[C@@H]2C[C@H]2c2ccccc2)(Cc2ccc(F)c(F)c2)CC1 [Example 20, 3-[4-(3,4-difluorobenzyl)-4-({[(1R,2S)-2-phenylcyclopropyl]amino}methyl)piperidin-1-yl]propanoic Acid]
IC50 [1]: < 100 nM

COCC1(CN[C@@H]2C[C@H]2c2ccccc2)CCNCC1 [Example 21, (1R,2S)—N-{[4-(methoxymethyl)piperidin-4-yl]methyl}-2-phenylcyclopropanamine]
IC50 [1]: < 100 nM

O=C(O)c1cccc(CC2(CN[C@@H]3C[C@H]3c3ccccc3)CCN(Cc3cccnc3)CC2)c1 [Example 33, 3-{[4-({[(1R,2S)-2-phenylcyclopropyl]amino}methyl)-1-(pyridin-3-ylmethyl)piperidin-4-yl]methyl}benzoic Acid]
IC50 [1]: < 100 nM

O=C(O)CCN1CCC(CN[C@@H]2C[C@H]2c2ccccc2)(COc2cccc(F)c2)CC1 [Example 38, 3-[4-[(3-fluorophenoxy)methyl]-4-({[(1R,2S)-2-phenylcyclopropyl]amino}methyl)piperidin-1-yl]propanoic Acid]
IC50 [1]: < 100 nM

CS(=O)(=O)N1CCC(CC#N)(CN[C@@H]2C[C@H]2c2ccccc2)CC1 (relative stereo) [Example 4, (1-(Methylsulfonyl)-4-{[(trans-2-phenylcyclopropyl)amino]methyl}piperidin-4-yl)acetonitrile]
IC50 [1]: < 100 nM

Fc1ccc(CC2(CN[C@@H]3C[C@H]3c3ccccc3)CCNCC2)cc1 [Example 11, (1R,2S)—N-{[4-(4-fluorobenzyl)piperidin-4-yl]methyl}-2-phenylcyclopropanamine]
IC50 [1]: < 100 nM

COC(=O)N1CCC(CC#N)(CN[C@@H]2C[C@H]2c2ccccc2)CC1 (relative stereo) [Example 2, Methyl 4-(cyanomethyl)-4-{[(trans-2-phenylcyclopropyl)amino]methyl}piperidine-1-carboxylate]
IC50 [1]: < 100 nM

O=C(O)CCN1CCC(CN[C@@H]2C[C@H]2c2ccccc2)(Cc2ccccc2F)CC1 [Example 16, 3-[4-(2-fluorobenzyl)-4-({[(1R,2S)-2-phenylcyclopropyl]amino}methyl)piperidin-1-yl]propanoic Acid]
IC50 [1]: < 100 nM

N#CC1(c2ccc(CC3(CN[C@@H]4C[C@H]4c4ccccc4)CCN(CCC(=O)O)CC3)cc2)CC1 [Example 26, 3-[4-[4-(1-cyanocyclopropyl)benzyl]-4-({[(1R,2S)-2-phenylcyclopropyl]amino}methyl)piperidin-1-yl]propanoic Acid]
IC50 [1]: < 100 nM

N#Cc1cccc(OCC2(CN[C@@H]3C[C@H]3c3ccccc3)CCN(CCC(=O)O)CC2)c1 [Example 47, 3-[4-[(3-cyanophenoxy)methyl]-4-({[(1R,2S)-2-phenylcyclopropyl]amino}methyl)piperidin-1-yl]propanoic Acid]
IC50 [1]: < 100 nM

O=C(O)c1cccc(CC2(CN[C@@H]3C[C@H]3c3ccccc3)CCN(CC3CC3)CC2)c1 [Example 30, 3-{[1-(cyclopropylmethyl)-4-({[(1R,2S)-2-phenylcyclopropyl]amino}methyl)piperidin-4-yl]methyl}benzoic Acid]
IC50 [1]: < 100 nM

COc1cccc(CC2(CN[C@@H]3C[C@H]3c3ccccc3)CCN(CCC(=O)O)CC2)c1 [Example 59, 3-[4-(3-methoxybenzyl)-4-({[(1R,2S)-2-phenylcyclopropyl]amino}methyl)piperidin-1-yl]propanoic Acid]
IC50 [1]: < 100 nM

Cn1cc(-c2cccc(CC3(CN[C@@H]4C[C@H]4c4ccccc4)CCN(CCC(=O)O)CC3)c2)cn1 [Example 27, 3-[4-[3-(1-methyl-1H-pyrazol-4-yl)benzyl]-4-({[(1R,2S)-2-phenylcyclopropyl]amino}methyl)piperidin-1-yl]propanoic Acid]
IC50 [1]: < 100 nM
